Reference: article PMC8445441, “Elucidating the mechanism by which synthetic helper peptides sensitize Pseudomonas aeruginosa to multiple antibiotics” (PLoS Pathogens, 2021)
Like-named read-outs stand apart in the source and are kept apart here.

What was measured:
[1] = test system: clinical P. aeruginosa isolates; assay: microbe, parasite or virus in culture; settings: Pseudomonas aeruginosa, 18 h, antibiotic alone
How it was run: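 Broth microdilution per CLSI in MHB, two-fold drug dilutions mixed with an equal volume of bacteria at about 1 × 10^6 CFU/mL. After 18 h at 37 °C, MIC taken as the lowest concentration with no visible growth; run in triplicate.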

[2] = test system: P. aeruginosa PA14; assay: microbe, parasite or virus in culture; design: MICa: MIC of the antibiotic / MICac: MIC of the antibiotic in the combination: unit not given beside the values
How it was run: (§1)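 MICs were determined by CLSI broth microdilution in MHB, in triplicate: two-fold drug dilutions were mixed 1:1 with bacterial suspension of ~1 × 10^6 CFU/mL and incubated 18 h at 37 °C. The MIC was the lowest concentration with no visible growth.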

[3] = test system: P. aeruginosa NR-31041; assay: microbe, parasite or virus in culture; design: MICa: MIC of the antibiotic / MICac: MIC of the antibiotic in the combination: unit not given beside the values
How it was run: as §1

[4] = test system: P. aeruginosa PAK; assay: microbe, parasite or virus in culture; design: MICa: MIC of the antibiotic / MICac: MIC of the antibiotic in the combination: unit not given beside the values
How it was run: as §1

[5] = test system: P. aeruginosa NR-31040; assay: microbe, parasite or virus in culture; design: MICa: MIC of the antibiotic / MICac: MIC of the antibiotic in the combination: unit not given beside the values
How it was run: as §1

[6] = test system: P. aeruginosa ATCC27853; assay: microbe, parasite or virus in culture; design: MICa: MIC of the antibiotic / MICac: MIC of the antibiotic in the combination: unit not given beside the values
How it was run: as §1

[7] = test system: P. aeruginosa HM-214; settings: strain HM-214; antibiotic + D-11 (MICb/MICbc 128/4)
How it was run: as §1

[8] = test system: P. aeruginosa AUMC-Pa-2; settings: strain AUMC-Pa-2; antibiotic + D-11 (MICb/MICbc 64/4)
How it was run: as §1

[9] = test system: P. aeruginosa AUMC-Pa-1; settings: strain AUMC-Pa-1; antibiotic + D-11 (MICb/MICbc 128/4)
How it was run: as §1

[10] = test system: P. aeruginosa AUMC-Pa-5; assay: microbe, parasite or virus in culture
How it was run: as §1

[11] = test system: P. aeruginosa AUMC-Pa-4; assay: microbe, parasite or virus in culture
How it was run: as §1

[12] = test system: P. aeruginosa AUMC-Pa-6; assay: microbe, parasite or virus in culture
How it was run: as §1

[13] = test system: P. aeruginosa AUMC-Pa-3; assay: microbe, parasite or virus in culture
How it was run: as §1

[14] = test system: P. aeruginosa PAO1; assay: microbe, parasite or virus in culture; settings: PAO1; for FICI / MICac: the MIC for the antibiotic in the combination: S3 Table
How it was run: as §1

- MIC ([1]; read-out: Antibiotic sensibility (MIC) of clinical P. aeruginosa isolate AUMC-Pa-1, strain AUMC-Pa-1): > 128 µM
- MIC ([1]; read-out: Antibiotic sensibility (MIC) of clinical P. aeruginosa isolate AUMC-Pa-2, strain AUMC-Pa-2): > 128 µM
- MIC ([1]; read-out: Antibiotic sensibility (MIC) of clinical P. aeruginosa isolate AUMC-Pa-3, strain AUMC-Pa-3): > 128 µM
- MIC ([1]; read-out: Antibiotic sensibility (MIC) of clinical P. aeruginosa isolate AUMC-Pa-4, strain AUMC-Pa-4): > 128 µM
- MIC ([1]; read-out: Antibiotic sensibility (MIC) of clinical P. aeruginosa isolate AUMC-Pa-5, strain AUMC-Pa-5): > 128 µM
- MIC ([1]; read-out: Antibiotic sensibility (MIC) of clinical P. aeruginosa isolate AUMC-Pa-6, strain AUMC-Pa-6): > 128 µM
- MIC ([1]; read-out: Antibiotic sensibility (MIC) of clinical P. aeruginosa isolate HM-214, strain HM-214): > 128 µM
- MIC ([1]; read-out: Antibiotic sensibility (MIC) of clinical P. aeruginosa isolate NR-31040, strain NR-31040): > 128 µM
- MIC ([1]; read-out: Antibiotic sensibility (MIC) of clinical P. aeruginosa isolate NR-31041, strain NR-31041): > 128 µM
- MIC ([2]; Pseudomonas aeruginosa, PA14, 18 h, read-out: MICa: MIC of the antibiotic): > 128 µM
- MICac: MIC of the antibiotic in the combination ([2]; strain PA14, with D-11 at MICbc 4, unit not given): 16
- MIC ([3]; Pseudomonas aeruginosa, NR31041, 18 h, read-out: MICa: MIC of the antibiotic): > 128 µM
- MICac: MIC of the antibiotic in the combination ([3]; strain NR-31041, with D-11 at MICbc 4, unit not given): 16
- MIC ([4]; Pseudomonas aeruginosa, 18 h, read-out: MICa: MIC of the antibiotic): > 128 µM
- MICac: MIC of the antibiotic in the combination ([4]; strain PAK, with D-11 at MICbc 4, unit not given): 16
- MIC ([5]; Pseudomonas aeruginosa, NR31040, 18 h, read-out: MICa: MIC of the antibiotic): > 128 µM
- MICac: MIC of the antibiotic in the combination ([5]; strain NR-31040, with D-11 at MICbc 4, unit not given): 8
- MIC ([6]; Pseudomonas aeruginosa, ATCC27853, 18 h, read-out: MICa: MIC of the antibiotic): > 128 µM
- MICac: MIC of the antibiotic in the combination ([6]; strain ATCC27853, with D-11 at MICbc 4, unit not given): 8
- MIC ([10]; Pseudomonas aeruginosa, AUMCPA5, 18 h, read-out: MICa: MIC of the antibiotic): > 128 µM
- MICac: MIC of the antibiotic in the combination ([10]; strain AUMC-Pa-5, with D-11 at MICbc 4, unit not given): >128/>128
- MIC ([11]; Pseudomonas aeruginosa, AUMCPA4, 18 h, read-out: MICa: MIC of the antibiotic): > 128 µM
- MICac: MIC of the antibiotic in the combination ([11]; strain AUMC-Pa-4, with D-11 at MICbc 4, unit not given): >128/128
- MIC ([12]; Pseudomonas aeruginosa, AUMCPA6, 18 h, read-out: MICa: MIC of the antibiotic): > 128 µM
- MICac: MIC of the antibiotic in the combination ([12]; strain AUMC-Pa-6, with D-11 at MICbc 4, unit not given): 32
- MIC ([13]; Pseudomonas aeruginosa, AUMCPA3, 18 h, read-out: MICa: MIC of the antibiotic): > 128 µM
- MICac: MIC of the antibiotic in the combination ([13]; strain AUMC-Pa-3, with D-11 at MICbc 4, unit not given): 8
- MIC ([14]; Pseudomonas aeruginosa, PAO1, 18 h, read-out: MICa: the MIC of antibiotics, S3 Table, antibiotic alone): > 128 µM
- MICac: the MIC for the antibiotic in the combination ([14]; with 2 μM D-11): 8 µM
- MICac: the MIC for the antibiotic in the combination ([14]; with 4 μM D-11): 4 µM
SMILES: CCn1cc(C(=O)O)c(=O)c2ccc(C)nc21 [Nalidixic Acid]
- FICI ([2]; strain PA14, antibiotic + D-11 (MICb/MICbc 128/4)): 0.094
- FICI ([3]; strain NR-31041, antibiotic + D-11 (MICb/MICbc 64/4)): 0.125
- FICI ([4]; strain PAK, antibiotic + D-11 (MICb/MICbc 64/4)): 0.125
- FICI ([5]; strain NR-31040, antibiotic + D-11 (MICb/MICbc 128/4)): 0.063
- FICI ([6]; strain ATCC27853, antibiotic + D-11 (MICb/MICbc 32/4)): 0.156
- FICI [7]: 0.531
- FICI [8]: 0.188
- FICI [9]: 0.531
- FICI ([10]; strain AUMC-Pa-5, antibiotic + D-11 (MICb/MICbc 64/4)): 1.063
- FICI ([11]; strain AUMC-Pa-4, antibiotic + D-11 (MICb/MICbc 128/4)): 0.531
- FICI ([12]; strain AUMC-Pa-6, antibiotic + D-11 (MICb/MICbc 64/4)): 0.188
- FICI ([13]; strain AUMC-Pa-3, antibiotic + D-11 (MICb/MICbc 128/4)): 0.063
- FICI ([14]; antibiotic + 2 μM D-11): 0.094
- FICI ([14]; antibiotic + 4 μM D-11): 0.141
